Legend:
[1] = acute toxicity in mice (LD50); settings: mouse, in vivo
Procedure: First of all, the compounds of the present invention are characterized by a low acute toxicity and a very favourable therapeutic index.
The compounds were administered by oral and intraperitoneal route.

[2] = system: platelet-rich plasma (PRP) from guinea pigs; test: in vitro platelet aggregation in platelet-rich plasma, Born aggregometer; type: cell-based; settings: vs ASA
[3] = system: sudden death induced by arachidonate in mice; test: protection against sudden death induced by arachidonate in mice; type: in vivo; settings: oral; for protection against sudden death compared with ASA: 20 mg/kg vs ASA 200 mg/kg; for increase of protection as compared with ASA: screening dosage 20 mg/kg vs ASA 200 mg/kg
From the text: The same compounds from BBR-1507 to BBR-1513, given orally, protected against sudden death induced by arachidonate in mice.

[4] = system: conscious normal and in spontaneously hypertensive rats; test: hypotensive effect in conscious normal and spontaneously hypertensive rats; type: in vivo
Procedure: This is particularly the case of compounds like as BBR-1511, 1513 and 1509 which show only a little (5-8 mmHg) even if prolonged hypotensive effect when tested in conscious normal and in spontaneously hypertensive rats at doses ranging from 100 to 200 mg/kg by intraperitoneal route.

[5] = system: paw edema induced by carrageenin; test: paw edema induced by carrageenin; type: in vivo; settings: 20, 60 and 200 mg/kg; for reducing the paw edema induced by carrageenin: oral route; for activity in paw edema relative to ASA: oral, more active than ASA
[6] = system: sudden death induced by arachidonate in mice; test: protection against sudden death induced by arachidonate in mice; settings: vs ASA
SHR Rats = test: hypotensive effect in conscious spontaneously hypertensive rats (Table 2); type: in vivo; set-up: ΔBP sist: unit not given here
From the text: (§1) As it is shown in Table 2, the decrease of the systolic median blood pressure was long lasting and the length of the effect was dose-related.

Normotensive rats = test: hypotensive effect in conscious normotensive rats (Table 2); type: in vivo; settings: os
From the text: as §1

[7] = conscious normal and SHR rats, 100 to 200 mg/kg, intraperitoneal, prolonged
[8] = intraperitoneal and oral, conscious normotensive and SHR rats, qualitative

Structure (SMILES)	LD50 ([1]; ip) [mg/kg]	LD50 ([1]; po, os) [mg/kg]	inhibiting platelet aggregation in vitro compared with ASA [2]	protection against sudden death compared with ASA [3]	hypotensive effect [4, 7]	reducing the paw edema induced by carrageenin [5]	inhibiting platelet aggregation in vivo compared with ASA [6]	increase of protection as compared with ASA [3]	duration (SHR Rats; os, 3.125 mg/kg) [h]	ΔBP sist (SHR Rats; os, 3.125 mg/kg)	duration (SHR Rats; os, 6.25 mg/kg) [h]	ΔBP sist (SHR Rats; os, 6.25 mg/kg)	duration (SHR Rats; os, 12.5 mg/kg) [h]	ΔBP sist (SHR Rats; os, 12.5 mg/kg)	duration (Normotensive rats; 12.5 mg/kg) [h]	ΔBP sist (Normotensive rats; 12.5 mg/kg)	hypotensive effect [4, 8]	activity in paw edema relative to ASA [5]	also measured
Nc1ccc2c(c1)CCCC1CC(=O)NN=C21 (racemic) [BBR-1513, dl-9-amino-2,4,4a,5,6,7-hexahydro-3H-benzo-[6,7]-cyclohepten[1,2-c]-pyridazin-3-one]	483	700	at least equiactive as ASA	equiactive as acetylsalicylic acid (ASA)	5-8 mmHg	scarcely effective	at least equiactive as ASA	–	–	–	–	–	–	–	–	–	–	–	–
CC(=O)Nc1ccc2c(c1)CCCC1CC(=O)NN=C21 (racemic) [BBR-1509, dl-8-acetylamino-2,4,4a,5,6,7-hexahydro-3H-benzo[6,7]-cyclohepten[1,2-c]-pyridazin-3-one]	> 1000	> 1000	at least equiactive as ASA	equiactive as acetylsalicylic acid (ASA)	5-8 mmHg	inactive	at least equiactive as ASA	–	–	–	–	–	–	–	–	–	–	–	–
O=C1CC2CCc3cc(NC(=O)CCl)ccc3C2=NN1 (racemic) [BBR-1514, dl-8-chloroacetylamino-4,4a,5,6-tetrahydro-2H-benzo(h)-cinnolin-3-one]	> 1000	> 1000	at least equiactive as ASA	–	–	inactive	at least equiactive as ASA	–	–	–	–	–	–	–	–	–	–	–	–
CCCCN1N=C2c3ccc(N)cc3CCC2CC1=O (racemic) [BBR-1511]	1000	> 1000	–	equiactive as acetylsalicylic acid (ASA)	5-8 mmHg	–	–	–	–	–	–	–	–	–	–	–	–	–	–
CC(=O)Nc1ccc2c(c1)CCC1CC(=O)NN=C21 (racemic) [BBR-1508, dl-8-acetylamino-4,4a,5,6-tetrahydro-2H-benzo(h)-cinnolin-3-one]	360	> 1000	–	–	–	effective in reducing the paw edema	–	40%	2	-30	4	-30	4.6	-55	4	-20	more evident and prolonged hypotensive effect	1.5-2 times	duration (SHR Rats; i.p., 12.5 mg/kg): 3 h; ΔBP sist (SHR Rats; i.p., 12.5 mg/kg): -50; duration (SHR Rats; i.p., 25 mg/kg): 3 h; ΔBP sist (SHR Rats; i.p., 25 mg/kg): -90; duration (SHR Rats; os, 25 mg/kg): 4.6 h; ΔBP sist (SHR Rats; os, 25 mg/kg): -65; ΔBP sist (Normotensive rats; 3.125 mg/kg): inactive; duration (Normotensive rats; 6.25 mg/kg): 1.5 h; ΔBP sist (Normotensive rats; 6.25 mg/kg): -8; duration (Normotensive rats; 25 mg/kg): 4 h; ΔBP sist (Normotensive rats; 25 mg/kg): -48
CC(=O)Nc1ccc2c(c1)CC1CC(=O)NN=C21 (racemic) [BBR-1507, dl-7-acetylamino-4,4a-dihydro-5H-indeno-[1,2-c]pyridazin-3-one]	310	> 1000	–	–	–	effective in reducing the paw edema	–	20-30%	3	-25	> 4	-50	5.6	-58	3	-26	more evident and prolonged hypotensive effect	1.5-2 times	duration (SHR Rats; i.p., 50 mg/kg): > 4 h; ΔBP sist (SHR Rats; i.p., 50 mg/kg): -55; duration (SHR Rats; os, 1.56 mg/kg): 1.5 h; ΔBP sist (SHR Rats; os, 1.56 mg/kg): -18; duration (Normotensive rats; 6.25 mg/kg): 3 h; ΔBP sist (Normotensive rats; 6.25 mg/kg): -8
Nc1ccc2c(c1)CC1CC(=O)NN=C21 (racemic) [BBR-1512, dl-7-amino-4,4a-dihydro-5H-indeno[1,2-c]-pyridazin-3-one]	200	400	–	–	–	–	–	20-30%	–	–	–	–	–	–	–	–	–	–	–
Nc1ccc2c(c1)CCC1CC(=O)NN=C21 (racemic) [BBR-1510, dl-8-amino-4,4a,5,6-tetrahydro-2H-benzo(h)-cinnolin-3-one]	610	> 1000	–	–	–	effective in reducing the paw edema	–	20-30%	2	-46	3.4	-40	> 3	-60	> 6	-28	more evident and prolonged hypotensive effect	1.5-2 times	duration (SHR Rats; i.p., 6.25 mg/kg): 1 h; ΔBP sist (SHR Rats; i.p., 6.25 mg/kg): -55; duration (SHR Rats; i.p., 12.5 mg/kg): > 4 h; ΔBP sist (SHR Rats; i.p., 12.5 mg/kg): -80; duration (SHR Rats; os, 1.56 mg/kg): 1 h; ΔBP sist (SHR Rats; os, 1.56 mg/kg): -48
